Laboratory results from patent US5380834A, “Immuno-suppressive agent” (Ishihara Sangyo Kaisha Ltd., priority 1992, dated 1995).
Converted amounts (≈) assume the structure as drawn.

Key:
murine thymocytes = experiment: Effects on the mitogenic response by murine thymocytes (Con A stimulation, 3H-TdR uptake); format: cell-based, BALB/c murine; details: Mus musculus, Thymocyte; BALB/c thymocytes, Con A 5 μg/ml, 48 hours, 3H-TdR uptake; read-out: IC50 value, a (mitogenic response of murine thymocytes)
Procedure: Using BALB/c murine thymocytes, the effect of the compound of the formula (I) on the mitogenic response of lymphocytes to the stimulation by concanavalin A (hereinafter referred to simply as Con A, Product No. L-1000, manufactured by Vector Laboratories) was studied. Namely, 4×10^5 murine thymocytes were cultured for 48 hours on a microplate with 96 wells in a RPMI1640 solution containing 10% of a fetal bovine serum (hereinafter referred to simply as a 10% FCS-RPMI solution) together with Con A (5 μg/ml) and the compound of the formula (I) (in an incubator, 5% CO2, at 37° C.). Then, 0.5 μCi of ^3 H-thymidine (hereinafter referred to simply as ^3 H-TdR) was added thereto, and the mixture was further cultured for 4 hours. Then, cells were collected by a cell harvester, and the radioactivity (dpm) of ^3 H-TdR uptaken into cells was measured. Such measured amounts of ^3 H-TdR uptaken into the cells were used as indices of the mitogenic response of the murine thymocytes, and the radioactivity at each concentration (from 0.001 to 1,000 μg/ml) of the compound of the formula (I) was compared with the control value treated solely by Con A, to calculate IC50 value. In these Tables 12 and 13, the results of murine thymocytes are shown by (a).
For the basic procedure of this test, reference was made to Selected methods in cellular immunology, p. 144-146 (translated by Katsuyuki Imai et al., published by Rikogakusha, (1982)).

murine bone mallow cells = experiment: Effects on the murine bone mallow cells (proliferation, 3H-TdR uptake); format: cell-based, BALB/c mouse; details: Mus musculus, bone marrow cells; 20% L929 culture supernatant, 48 hours, 3H-TdR uptake; Tables 12-15; read-out: IC50 value, c (murine bone mallow cells)
Procedure: Bone mallow cells were removed from the femur of a BALB/c mouse and suspended in a 10% FCS-RPMI solution. The cell suspension was put into a plastic Petri dish having a diameter of 10 cm and left to stand still (in an incubator, 5% CO2, at 37° C.). Two hours later, only floating cells were recovered, and adhesion cells were removed. 1×10^5 floating cells were cultured for 48 hours together with a 20% culture supernatant of L929 fibroblastoma and the compound of the formula (I) on a microplate with 96 wells by a 10% FCS-RPMI solution (in an incubator, 5% CO2, at 37° C.). Then, 0.5 μCi of ^3 H-TdR was added thereto, and the mixture was further cultured for 4 hours. Then, cells were collected by a cell harvester, and the radioactivity (dpm) of ^3 H-TdR uptaken into the cells, was measured. Such measured amounts of ^3 H-TdR uptaken into the cells were used as indices for the proliferation of bone mallow cells, and the radioactivity at each concentration (from 0.001 to 1,000 μg/ml) of the compound of the formula (I) was compared with the control value where the L929 culture supernatant was added alone, to calculate the IC50 value. In these Tables 12 and 13, the results of the bone mallow cells are shown by (c).
For the basic procedure of this test, reference was made to Seikagakujikken Koza compiled by Japan Biochemistry Association, Vol. 5, p. 266-270 (published by Tokyo Kagaku Dojin in 1986).

[1] = tested on: murine mixed lymphocyte reaction (spleen cells of BALB/c and C57BL/6 mice); experiment: Effects on the murine mixed lymphocyte reaction (3H-TdR uptake); format: cell-based; details: Mus musculus, BALB/c + C57BL/6 spleen cells, 48 hours, read-out: IC50 value, b (murine mixed lymphocyte reaction)
Procedure: Using spleen cells of BALB/c and C57BL/6 mice, the effect of the compound of the formula (I) on the murine mixed lymphocyte reaction in both sides, was studied. Namely, spleen cells of both types of mice were mixed in an equal amount of 5×10^5 cells each, and the mixed cells were cultured together with the compound of the formula (I) for 48 hours on a microplate with 96 wells by a 10% FCS-RPMI solution (in an incubator, 5% CO2, at 37° C.). Then, 0.5 μCi of ^3 H-TdR was added thereto, and the mixture was further cultured for from 16 to 18 hours. Then, cells were collected by a cell harvester, and the radioactivity (dpm) of ^3 H-TdR uptaken into the cells, was measured. Such measured amounts of ^3 H-TdR uptaken into the cells were used as indices for the mixed lymphocyte reaction, and the radioactivity at each concentration (from 0.001 to 1,000 μg/ml) of the compound of the formula (I) was compared with the non-treated control value, to calculate the Ic50 value.
For the basic procedure for this test, reference was made to Selected methods in cellular immunology, p. 147-149 (translated by Katsuyuki Imai et al., published by Rikogakusha, (1982)).

[2] = tested on: IgE antibody production from murine spleen B cells; experiment: Effects on the IgE antibody production from murine spleen cells (LPS + IL4); format: cell-based, BALB/c mouse; details: Mus musculus, B-cell, 168 h; spleen B cells, LPS 10 μg/ml, IL4 100 U/ml, 7 days, enzyme-immunoassay; read-out: IC50 value, IgE antibody production
Procedure: (§1) Using murine spleen B cells, the effects of the compound of the formula (I) on the IgGl, IgM and IgE antibody production induced by the stimulation by LPS (lipopolysaccharide; Product No. 520.02051, manufactured by Wako Junyaku) and IL4 (interleukin 4), were studied. Namely, spleen cells of a BALB/c mouse were treated with a murine anti-Thy-1 antibody (obtained from Chiba University) and a rabbit complement (Product No. 3051, manufactured by cedarlane) to remove T cells, and 3×10^5 spleen B cells were cultured for 7 days together with 10 μg/ml of LPS, 100 U/ml of mouse-recombinant IL4 (Product No. MIL-4C, manufactured by Genzyme) and each concentration (from […]) of the compound of the formula (I) on a microplate with 96 wells by a 10% FCS-RPMI solution (in an incubator, 5% CO2, at 37° C.).
(§2) For the basic procedure of this test, reference was made to The Journal of Immunology, Vol. 136, p. 4538, (1986).
(§3) The amount of each antibody in the cell culture supernatant hereby obtained, was measured by the following enzyme-immunoassay. Firstly, on a microplate with 96 wells, 1 μg/ml of a rabbit anti-mouse IgGl antibody (Product No. 36243, manufactured by Cappel), 1 μg/ml of a goat anti-mouse IgM antibody (Product No. 0611-0201, manufactured by Cappel) or 10 μg/ml of a rat anti-mouse IgE monoclonal antibody (Product No. LO-ME-2, manufactured by Experimental Immunology) was coated (50 μl/well, at room temperature for 60 minutes), and then a nonspecific bond was blocked by a 0.1% bovine serum albumin-containing 10 mM sodium phosphate buffer (pH 7.2) (at room temperature for 60 minutes). Then, the above-mentioned cell culture supernatant or its diluted solution was added in an amount of 50 μl/well and reacted at room temperature for 60 minutes. Further, an alkaline phosphatase-labeled rabbit anti-mouse IgGl antibody (Product No. 61-0122, manufactured by Zymet) diluted 1,000 times, an alkaline phosphatase-labeled rabbit anti-mouse IgM antibody (Product No. 61-6822, manufactured by Zymet) diluted 2,000 times, or an alkaline phosphatase-labeled goat anti-mouse IgE antibody (Product No. PA-284, manufactured by Binding Site) diluted 500 times was added in an amount of 50 μl/well and reacted at room temperature for 60 minutes. 100 μl/well of a 10% diethanol amine buffer solution (pH 9.8) containing p-nitrophenyl phosphate as an enzyme substrate, was reacted, and the absorbance at 405 nm was measured. The amount of each antibody was calculated from the calibration curve of each standard antibody, and the IC50 value of the compound of the formula (I) on the antibody production was calculated using as the control value a value obtained in the absence of the compound of the formula (I).

[3] = tested on: IgGl antibody production from murine spleen B cells; experiment: Effects on the IgGl antibody production from murine spleen cells (LPS + IL4); format: cell-based, BALB/c mouse; details: Mus musculus, B-cell, 168 h; spleen B cells, LPS 10 μg/ml, IL4 100 U/ml, 7 days, enzyme-immunoassay; read-out: IC50 value, IgGl antibody production
Procedure: as §1, §2, §3

[4] = tested on: IgM antibody production from murine spleen B cells; experiment: Effects on the IgM antibody production from murine spleen cells (LPS + IL4); format: cell-based, BALB/c mouse; details: Mus musculus, B-cell, 168 h; spleen B cells, LPS 10 μg/ml, IL4 100 U/ml, 7 days, enzyme-immunoassay; read-out: IC50 value, IgM antibody production
Procedure: as §1, §2, §3

Row | SMILES | IC50 (murine thymocytes) | IC50 (murine bone mallow cells) | IC50 [1] | IC50 [2] | IC50 [3] | IC50 [4]
1 | CCCCCCCCCC(=O)O[C@H]1C=C[C@H]2CO[C@@H]1O2 [Compound 12, 1,6-anhydro-2-O-decanoyl-3,4-dideoxy-β-D-threo-hex-3-enopyranose] | 110 µg/mL (≈ 390 µM) | 560 µg/mL (≈ 1980 µM) | 560 µg/mL | 28 µg/mL | 24 µg/mL | 0.11 µg/mL
2 | O=C(Nc1ccccc1)O[C@H]1C=C[C@H]2CO[C@@H]1O2 [Compound 23, 1,6-anhydro-3,4-dideoxy-2-O-phenylcarbamoyl-β-D-threo-hex-3-enopyranose] | 95 µg/mL (≈ 384 µM) | 49 µg/mL (≈ 198 µM) | 170 µg/mL | 43 µg/mL | 72 µg/mL | 69 µg/mL
3 | CC(=O)Oc1ccccc1C(=O)O[C@H]1C=C[C@H]2CO[C@@H]1O2 [Compound 11] | 110 µg/mL (≈ 379 µM) | 210 µg/mL (≈ 723 µM) | 170 µg/mL | 32 µg/mL | 16 µg/mL | 28 µg/mL
4 | C1=C[C@H]2CO[C@H](O2)[C@H]1OCc1ccccc1 [Compound 48] | 120 µg/mL (≈ 550 µM) | 430 µg/mL (≈ 1970 µM) | > 1000 µg/mL | 41 µg/mL | 34 µg/mL | 35 µg/mL
